Values of other authors as cited in patent US20110081416A1, “ORDERED MESOPOROUS SILICA MATERIAL” (FORMAC Pharmaceuticals N.V., priority 2008, published 2011).
Each block holds one compound with its values, some of them ahead of it.

Columns and labels:
[1] = not given; remark: listed apart in the source
[2] = Table 3, acids with a pKa of less than 2

increase in plasma concentration on doubling the dose (doubling the dose): 30-40%
half-life (in vivo): 4 to 5 h
time of peak (plasma) concentrations (oral): ≤ 2 h
Structure (SMILES): C#C[C@]1(O)CC[C@H]2[C@@H]3CCC4=Cc5oncc5C[C@]4(C)[C@H]3CC[C@@]21C [Danazol, 17a-Pregna-2,4-dien-20-yno[2,3-d]-isoxazol-17-ol]

solubility in water (in words) [1]: insoluble
Structure (SMILES): CC(=O)O[C@H]1C(=O)[C@@]2(C)[C@H]([C@H](OC(=O)c3ccccc3)[C@]3(O)C[C@H](OC(=O)[C@H](O)[C@@H](NC(=O)c4ccccc4)c4ccccc4)C(C)=C1C3(C)C)[C@]1(OC(C)=O)CO[C@@H]1C[C@@H]2O [Paclitaxel]

absolute bioavailability (5 mg dose taken twice a day): approximately 17%
solubility in ethanol (in words) ([1]; ethanol): freely soluble
solubility in methanol and chloroform (in words) ([1]; methanol and chloroform): very soluble
solubility in water (in words) [1]: practically insoluble
Structure (SMILES): C=CC[C@@H]1/C=C(\C)C[C@H](C)C[C@H](OC)[C@H]2O[C@@](O)(C(=O)C(=O)N3CCCC[C@H]3C(=O)O[C@H](/C(C)=C/[C@@H]3CC[C@@H](O)[C@H](OC)C3)[C@H](C)[C@@H](O)CC1=O)[C@H](C)C[C@@H]2OC [Tacrolimus]

solubility in water (in words) [1]: poorly soluble
Structure (SMILES): CCC(C)n1ncn(-c2ccc(N3CCN(c4ccc(OCC5COC(Cn6cncn6)(c6ccc(Cl)cc6Cl)O5)cc4)CC3)cc2)c1=O (stereo not shown) [Itraconazole]

solubility in alcohol and acetone (in words) ([1]; alcohol and acetone): soluble
solubility in water (in words) [1]: practically insoluble
Structure (SMILES): NC(=O)N1c2ccccc2C=Cc2ccccc21 [Carbamazepine, 5H-dibenz[b,f]azepine-5-carboxamide]

pKa [2]: 1.81
Structure (SMILES): O=S(O)O [sulfurous acid]

pKa [2]: 1.90
Structure (SMILES): O=S(=O)(O)NC1CCCCC1 [cyclamic acid]
